Assays:
[1] = Average particle size by particle size distribution analyzer; assay type: physicochemical; conditions: D-form crystal
Description: The content of residual solvent may be determined in a known manner, for example, by gas chromatography. The details on gas chromatography can be found in the Japanese Pharmacopoeia, 13th Edition, published by Hirokawa Publishing Co. (1996) pp. B83-B94, the Japanese Pharmacopoeia, 14th Edition, published by Hirokawa Publishing Co. (2001) pp. B98-B114 and elsewhere. In general, gas chromatography will cause a measurement error falling within around ±1%. The compound of the present invention can also be determined for its average particle size in a known manner or using various devices that are commercially available, such as a dry particle size distribution analyzer. In general, such a particle size distribution analyzer will cause a measurement error falling within around ±5%.
In these examples and comparison examples, X-ray diffractometry was performed using a powder X-ray diffractometer RINT-1100 (Rigaku), the content of residual solvent was determined using a gas chromatograph GC-17A (Shimadzu Corp.), and the average particle size was determined using a particle size distribution analyzer RPS-95 (Seishin Enterprise Co., Ltd.).

[2] = reported in JP 9-100291 A; cited from earlier work

SMILES	Particle size (average particle size) [1] [μm]	Stability compared with the A-type and C-type crystals [2]
CC[C@H]1OC(=O)[C@H](C)[C@@H](O[C@H]2C[C@@](C)(OC)[C@@H](O)[C@H](C)O2)[C@H](C)[C@@H](O[C@@H]2O[C@H](C)C[C@H](N(C)C(C)C)[C@H]2O)[C@]2(C)CC(C)=C(O2)[C@H](C)C(=O)[C@]1(C)OC [Example 3]	197	–
CC[C@H]1OC(=O)[C@H](C)[C@@H](O[C@H]2C[C@@](C)(OC)[C@@H](O)[C@H](C)O2)[C@H](C)[C@@H](O[C@@H]2O[C@H](C)C[C@H](N(C)C(C)C)[C@H]2O)[C@]2(C)CC(C)=C(O2)[C@H](C)C(=O)[C@]1(C)OC [Example 2]	302	–
CC[C@H]1OC(=O)[C@H](C)[C@@H](O[C@H]2C[C@@](C)(OC)[C@@H](O)[C@H](C)O2)[C@H](C)[C@@H](O[C@@H]2O[C@H](C)C[C@H](N(C)C(C)C)[C@H]2O)[C@]2(C)CC(C)=C(O2)[C@H](C)C(=O)[C@]1(C)OC [D-type crystal]	–	superior in stability

The next lines start with results.

Particle size (average particle size) [1] [μm]	SMILES	Stability compared with the A-type and C-type crystals [2]
185	CC[C@H]1OC(=O)[C@H](C)[C@@H](O[C@H]2C[C@@](C)(OC)[C@@H](O)[C@H](C)O2)[C@H](C)[C@@H](O[C@@H]2O[C@H](C)C[C@H](N(C)C(C)C)[C@H]2O)[C@]2(C)CC(C)=C(O2)[C@H](C)C(=O)[C@]1(C)OC [Example 8]	–
61	CC[C@H]1OC(=O)[C@H](C)[C@@H](O[C@H]2C[C@@](C)(OC)[C@@H](O)[C@H](C)O2)[C@H](C)[C@@H](O[C@@H]2O[C@H](C)C[C@H](N(C)C(C)C)[C@H]2O)[C@]2(C)CC(C)=C(O2)[C@H](C)C(=O)[C@]1(C)OC [Comparison Example 2, reference compound]	–
163	CC[C@H]1OC(=O)[C@H](C)[C@@H](O[C@H]2C[C@@](C)(OC)[C@@H](O)[C@H](C)O2)[C@H](C)[C@@H](O[C@@H]2O[C@H](C)C[C@H](N(C)C(C)C)[C@H]2O)[C@]2(C)CC(C)=C(O2)[C@H](C)C(=O)[C@]1(C)OC [Example 7]	–
82	CC[C@H]1OC(=O)[C@H](C)[C@@H](O[C@H]2C[C@@](C)(OC)[C@@H](O)[C@H](C)O2)[C@H](C)[C@@H](O[C@@H]2O[C@H](C)C[C@H](N(C)C(C)C)[C@H]2O)[C@]2(C)CC(C)=C(O2)[C@H](C)C(=O)[C@]1(C)OC [Comparison Example 1, reference compound]	–

— patent US7645864B2, “Erythromycin derivative having novel crystal structures and processes for their production” (Chugai Seiyaku Kabushiki Kaisha, priority 2001, dated 2010)
